A short description of data set [1]: Average particle size, PDI, zeta potential (dynamic light scattering) and RNA encapsulation efficiency (RiboGreen) of lipid nanoparticles. Format: physicochemical. The procedure: The average particle size, particle size distribution, and zeta potential of the lipid nanoparticles were measured using a Zetasizer Nano ZS (Malvern Instruments Ltd, UK) by dynamic light scattering and the form of lipid nanoparticle was measured using a transmission electron-microscope as described in NPL 12. The efficiency of mRNA encapsulation was estimated by RiboGreen fluorometry as described in NPL 13. Although the respective values vary depending on the type of pH-sensitive cationic lipid, the composition of the lipids constituting the lipid nanoparticles, the preparation conditions of the lipid nanoparticles, and the like, the average particle size of the lipid nanoparticles was in the range of 80 to 350 nm, the PDI was in the range of 0.05 to 0.4, the zeta potential was in the range of −16 to +5 mV, and the efficiency of mRNA encapsulation was 75 to 95%. • [NPL 12] Mahmoud A. Younis, et al., “A Multifunctional Lipid-Based Nanodevice for the Highly Specific Codelivery of Sorafenib and Midkine siRNA to Hepatic Cancer Cells”, Molecular Pharmaceutics, Vol. 16, pp. 4031-4044 • [NPL 13] Mahmoud M. Abd Elwakil, et al., “Engineered &-decalactone lipomers bypass the liver to selectively in vivo deliver mRNA to the lungs without targeting ligands”, Materials Horizons, Vol. 8, pp. 2251-2259
The average particle size, particle size distribution, and zeta potential of the lipid nanoparticles were measured in the same manner as in Example 1 to estimate the efficiency of SMO-siRNA encapsulation. The relationship between the flow rate ratio of the aqueous phase to the organic phase, the average particle size, particle size distribution, zeta potential, and SMO-siRNA encapsulation efficiency of the lipid nanoparticles prepared at the same flow rate ratio when CL15H6 was used as the pH-sensitive cationic lipid is shown in Table 3 below. In the subsequent experiments, lipid nanoparticles were prepared at a ratio of 4:1 (aqueous phase: organic phase), which provided the highest encapsulation efficiency, the smallest average particle size, and the smallest PDI.

In the next data set the test system is SMO mRNA. Briefly: In vivo SMO mRNA knockdown in liver tissue by qRT-PCR. The following applies: SMO-siRNA lipid nanoparticles, 0.5 mg/kg RNA iv, 24 hours, versus HEPES buffer control. Set-up: species or system mice. As to the method:
TAA-induced liver fibrosis model mice were prepared in the same manner as in Example 1, and SMO-siRNA-encapsulated lipid nanoparticles were intravenously administered to the mice via the tail vein so that the amount of RNA per kg of body weight was 0.5 mg/kg. 24 hours after the administration, the mouse livers were collected. The ratio of the amount of SMO mRNA to the amount of GAPDH mRNA in the liver tissue was confirmed by qRT-PCR. The SMO gene is expressed only in hepatic stellate cells in the liver.
Next, a lipid composition containing CL15H6 and SMO-siRNA were mixed in different ratios to prepare lipid nanoparticles with different nitrogen/phosphate (N/P) ratios. Specifically, lipid nanoparticles were prepared with N/P ratios of 0.5, 1, 2, 4, 8, 12, 16, and 20. The prepared lipid nanoparticles were intravenously administered to mice with liver fibrosis so that the amount of RNA per kg of body weight was 0.5 mg/kg, and the ratio of the amount of SMO mRNA to the amount of GAPDH mRNA in the liver tissue was confirmed 24 hours later.
Next, the relationship between the dosage amount of SMO-siRNA and the ratio of the amount of SMO mRNA to the amount of GAPDH mRNA in the liver tissue was examined. For comparison, the relationship between the dosage amount of control siRNA (siCtrl) and the ratio of SMO mRNA to GAPDH mRNA in hepatic stellate cells was also examined.
Lipid nanoparticles encapsulating a mixture of the above SMO-siRNA and TGFβ1-siRNA at a ratio of 1:1 were prepared by using CL15H6, the above SMO-siRNA (SEQ ID NOs: 1 and 2) targeting the mRNA of the SMO gene and the TGFβ1-siRNA (SEQ ID NOS: 3 and 4) targeting the mRNA of the TGFβ1 gene and having the sequence shown in Table 4 below. The prepared lipid nanoparticles were intravenously administered to mice with liver fibrosis so that each of the amounts of SMO-siRNA and of TGFβ1-siRNA per kg of body weight was 0.25 mg/kg, and 24 hours later, the ratios of the amounts of SMO mRNA and of TGFβ1 mRNA to the amount of GAPDH mRNA in the liver tissue was confirmed.
In general terms: Quantitative PCR measures a nucleic acid by following its amplification.

Setting [2] is: lipid nanoparticles CL15A6:DOPE:cholesterol:DMG-PEG2K 5:3:2:0.3.

Data on 1 molecule can be found in US20260021046A1, “LIPID NANOPARTICLE AND PHARMACEUTICAL COMPOSITION” (NATIONAL UNIVERSITY CORPORATION HOKKAIDO UNIVERSITY, priority 2022, published 2026).

Regarding `CCCCC/C=C\C/C=C\CCCCCCCCC(O)(CCCCCCCC/C=C\C/C=C\CCCCC)CCCCOC(=O)C1CCN(C)CC1` [CL15A6, (14z,17z)-5-hydroxy-5-((9z,12z)-octadeca-9,12-dien-1-yl)tricosa-14,17-dien-1-yl 1-methylpiperidine-4-carboxylate], the particle size in data set [1] (CL15A6 mRNA lipid nanoparticles, DMG-PEG2K 1.5 mol %) turned out to be 100 nm. For the same molecule, the Average particle size in data set [1] (CL15A6 mRNA lipid nanoparticles, N/P ratio increased from 4 to 8) was 80 nm. In data set [1] (setting [2]), this molecule showed an Average particle size of 80 nm and a PDI of less than 0.1. For the same molecule, the “amount of SMO mRNA (ratio to GAPDH mRNA) in liver tissue” value in the data set on SMO mRNA was “significantly reduced”.
